Measured values reported in the supplement of paper PMC8967900.

Tests used:
Assay in all cases: selective drug sensitivity score (sDSS, relative to normal bone marrow) (sDSS (score)); higher = more potent and effective on the cell line relative to normal bone marrow cells
Settings in all cases: 72 h
[1] = system: 697
[2] = system: ALL-PO
[3] = system: CCRF-HSB2
[4] = system: COG-LL-332h
[5] = system: COG-LL-355h
[6] = system: COG-LL-402h
[7] = system: HAL-01
[8] = system: HPB-ALL
[9] = system: KASUMI-10
[10] = system: KASUMI-2
[11] = system: KASUMI-9
[12] = system: KOPN-8
[13] = system: LC4-1
[14] = system: MHH-CALL-2
[15] = system: MHH-CALL-4
[16] = system: MOLT-16
[17] = system: MOLT-4
[18] = system: RCH-ACV
[19] = system: SEM cells
[20] = system: TMD5
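Note: ALL cell lines in 384-well plates, five doses spanning 10,000-fold, each plate scaled between vehicle and 100 µmol/L benzalkonium chloride controls, sDSS an adapted area-under-curve metric.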

Structure (SMILES)	selective drug sensitivity score [1]	selective drug sensitivity score [2]	selective drug sensitivity score [3]	selective drug sensitivity score [4]	selective drug sensitivity score [5]	selective drug sensitivity score [6]	selective drug sensitivity score [7]	selective drug sensitivity score [8]	selective drug sensitivity score [9]	selective drug sensitivity score [10]	selective drug sensitivity score [11]	selective drug sensitivity score [12]	selective drug sensitivity score [13]	selective drug sensitivity score [14]	selective drug sensitivity score [15]	selective drug sensitivity score [16]	selective drug sensitivity score [17]	selective drug sensitivity score [18]	selective drug sensitivity score [19]	selective drug sensitivity score [20]
COC(=O)c1ccc([C@H]2c3[nH]c4ccccc4c3C[C@H](C(=O)OC)N2C(=O)CCl)cc1 [RSL3] (top concentration 10000 nM)	0	0	0	0	3.8	0	3.5	0.4	0.3	0	0	0	0	0.1	0	0	0	4.5	0	0
Cc1cnc(NC(=O)Nc2cc(Br)c(C)cc2OC[C@@H]2CNCCO2)cn1 [Rabusertib] (top concentration 1000 nM)	-0.74	0.46	-0.74	-0.74	1.96	1.36	3.06	-0.74	-0.74	-0.74	-0.04	1.66	0.16	0.66	0.16	-0.14	-0.74	2.06	1.26	-0.74
CCOCc1nc2c(N)nc3ccccc3c2n1CC(C)(C)O [Resiquimod] (top concentration 10000 nM)	-4.62	-4.92	-4.92	-4.72	-4.92	-4.32	-4.62	-4.92	-2.72	-4.92	-4.92	-4.92	-4.12	-4.92	-4.92	-3.22	-4.92	-4.92	-4.92	-4.92
C[C@H]1CNCCCN1S(=O)(=O)c1cccc2cncc(F)c12 [Ripasudil] (top concentration 10000 nM)	2.68	-0.22	1.58	1.78	-0.22	-0.22	-0.22	-0.22	-0.22	-0.22	-0.22	0.88	-0.22	-0.02	0.18	-0.22	-0.22	-0.22	-0.22	0.98
Cc1nc(C(=O)NCC(=O)O)c(O)c2ccc(Oc3ccccc3)cc12 [Roxadustat] (top concentration 10000 nM)	-0.92	-0.82	-0.52	-1.02	-1.12	-1.12	1.08	5.28	-1.12	-0.92	-0.82	-0.92	-1.12	-1.12	-1.12	0.88	-1.12	-1.12	-1.12	-1.12
CN(C)C[C@@H]1CCn2cc(c3ccccc32)C2=C(C(=O)NC2=O)c2cn(c3ccccc23)CCO1 [Ruboxistaurin] (top concentration 10000 nM)	2.36	6.86	1.36	1.16	1.26	0.96	1.16	-5.14	1.96	-3.34	1.36	0.86	0.16	3.66	1.46	-0.34	-1.24	1.06	0.66	0.46
CN(CC(=O)N(Cc1ccc(C2CCCCC2)cc1)c1ccc(C(=O)O)cc1)S(=O)(=O)c1c(F)c(F)c(F)c(F)c1F [SH-4-54] (top concentration 25000 nM)	-2.64	-6.04	-5.04	-0.04	-0.54	-2.14	-6.34	-6.84	-3.64	-2.84	-6.14	-1.94	-3.34	-7.24	-5.44	-6.74	-6.04	-2.24	-6.14	-5.94
Cc1cc2c(C(=O)NC[C@H](C)c3ccccc3)c(O)c(O)cc2c(O)c1-c1c(C)cc2c(C(=O)NC[C@H](C)c3ccccc3)c(O)c(O)cc2c1O [Sabutoclax] (top concentration 25000 nM)	15.9	12.2	16.3	12.8	15.6	15.3	-7.62	19.4	5.18	11.3	14.9	17.9	13.8	-7.82	-7.22	17.6	9.18	16.8	10.4	-7.42
